Patent publication US6001867A, “1-aryl-dibenzothiophenes” (American Home Products Corporation, priority 1999, dated 1999)

Assays:
[1] = test system: rat hepatic microsomal PTPases; conditions: test compound 50 μM; rat hepatic microsomal fraction; substrate 50 uM, 37 deg.C
[2] = literature study; cited from earlier work
[3] = target: T1, Human recombinant PTP1B (hPTP1B) (Homo sapiens, UniProt P18031)
T1 sequence (P18031 1-435): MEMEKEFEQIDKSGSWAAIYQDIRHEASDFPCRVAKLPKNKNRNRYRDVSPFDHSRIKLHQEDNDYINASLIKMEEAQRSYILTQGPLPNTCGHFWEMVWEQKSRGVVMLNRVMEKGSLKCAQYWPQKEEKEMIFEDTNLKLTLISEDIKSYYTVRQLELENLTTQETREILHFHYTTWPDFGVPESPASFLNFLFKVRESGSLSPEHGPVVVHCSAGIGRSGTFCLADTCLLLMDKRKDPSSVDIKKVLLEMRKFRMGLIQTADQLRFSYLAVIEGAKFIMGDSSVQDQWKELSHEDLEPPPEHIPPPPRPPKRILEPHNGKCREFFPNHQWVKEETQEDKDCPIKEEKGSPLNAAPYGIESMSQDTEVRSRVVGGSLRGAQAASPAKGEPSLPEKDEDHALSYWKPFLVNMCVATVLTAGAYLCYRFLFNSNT

SMILES | % Change from Control (PTPase activity) [1] [%] | carcinogenicity [2] | IC50 [3] [nM]
Oc1ccc(-c2cccc3sc4ccccc4c23)cc1 [Example 3, 4-(Dibenzothiophen-1-yl)-phenol] | -51.63 |  | 
CN(C)c1ccc(-c2cccc3sc4ccccc4c23)cc1 [compound A (R=NMe2, R'=H)] |  | inactive | 
O=C(O)COc1ccc(-c2c(Br)ccc3sc4ccccc4c23)cc1 [Example 13, [4-(2-Bromo-dibenzothiophen-1-yl)-phenoxy]-acetic Acid] | -42.62 |  | 
O=C(O)COc1c(Br)cc(-c2cccc3sc4ccccc4c23)cc1Br [Example 14, [2,6-Dibromo-4-(dibenzothiophen-1-yl)-phenoxy]-acetic acid] | -74.88 |  | 
O=C(O)[C@@H](Cc1ccccc1)Oc1c(Br)cc(-c2c(Br)ccc3sc4ccccc4c23)cc1Br [Example 20] | -75.69 |  | 604
O=C(O)[C@@H](Cc1ccccc1)Oc1c(Br)cc(-c2cccc3sc4ccccc4c23)cc1Br [Example 19, (R)-2-[2,6-Dibromo-4-(dibenzothiophen-1-yl)-phenoxy]-3-phenyl-propionic acid] | -81.43 |  | 1330
COC(=O)COc1ccc(-c2c(Br)ccc3sc4ccccc4c23)cc1 [Example 10, [4-(2-Bromo-dibenzothiophen-1-yl)-phenoxy]-acetic Acid Methyl Ester] | -21.11 |  | 
O=C(O)COc1ccc(-c2cccc3sc4ccccc4c23)cc1 [Example 12, [4-(Dibenzothiophen-1-yl)-phenoxy]-acetic Acid] | -19.49 |  | 
Oc1c(Br)cc(-c2cccc3sc4ccccc4c23)cc1Br [Example 7, 2,6-Dibromo-4-(dibenzothiophen-1-yl)-phenol] | -18.53 |  | 1890
O=C(O)[C@@H](CCN1C(=O)c2ccccc2C1=O)Oc1c(Br)cc(-c2c(Br)ccc3sc4ccccc4c23)cc1Br [Example 21, (R)-2-[2,6-Dibromo-4-(2-bromo-dibenzothiophen-1-yl)-phenoxy]-4-(1,3-dioxo-1,3-dihydro-isoindol-2-yl)-butyric acid] | -87.44 |  | 1390
Oc1ccc(-c2c(Br)ccc3sc4ccccc4c23)cc1 [Example 6, 4-(2-Bromo-dibenzothiophen-1-yl)-phenol] | -31.13 |  | 
